From the NIST ThermoML archive (doi:10.1021/je034162x)

Details: 101.33 kPa, Liquid, Hot wire method

Cc1cccc(C)c1C [1,2,3-trimethylbenzene]
Details	thermal conductivity [W/m/K]	thermal diffusivity [m2/s]
257.62 K	0.1341	–
257.83 K	0.134	–
257.99 K	0.134	–
258.45 K	–	8.6e-08
259 K	–	8.55e-08
259.4 K	–	8.56e-08
276.36 K	0.1312	–
276.58 K	0.1312	–
276.73 K	0.1311	–
277.15 K	–	8.25e-08
277.71 K	–	8.21e-08
278.1 K	–	8.2e-08
283.35 K	0.1303	–
283.57 K	0.1302	–
283.74 K	0.1302	–
284.17 K	–	8.15e-08
284.73 K	–	8.14e-08
285.14 K	–	8.15e-08
295.58 K	0.1281	–
295.81 K	0.1279	–
295.99 K	0.1279	–
296.43 K	–	8.04e-08
297.01 K	–	8.01e-08
297.45 K	–	8.04e-08
312.79 K	0.1252	–
313.04 K	0.1252	–
313.21 K	0.1251	–
313.65 K	–	7.79e-08
314.26 K	–	7.81e-08
314.68 K	–	7.78e-08
330.74 K	0.1218	–
330.99 K	0.1218	–
331.17 K	0.1217	–
331.59 K	–	7.49e-08
332.23 K	–	7.53e-08
332.65 K	–	7.51e-08

Cc1ccc(C)c(C)c1 [1,2,4-trimethylbenzene]
Details	thermal conductivity [W/m/K]	thermal diffusivity [m2/s]
257.58 K	0.1345	–
257.79 K	0.1344	–
257.93 K	0.1344	–
258.32 K	–	8.89e-08
258.85 K	–	8.91e-08
259.23 K	–	8.92e-08
276.33 K	0.1314	–
276.54 K	0.1313	–
276.69 K	0.1312	–
277.09 K	–	8.61e-08
277.61 K	–	8.58e-08
277.99 K	–	8.6e-08
283.32 K	0.1301	–
283.54 K	0.13	–
283.68 K	0.1299	–
284.07 K	–	8.48e-08
284.63 K	–	8.52e-08
284.98 K	–	8.47e-08
295.54 K	0.1277	–
295.76 K	0.1277	–
295.91 K	0.1275	–
296.3 K	–	8.26e-08
296.84 K	–	8.28e-08
297.21 K	–	8.25e-08
312.75 K	0.1244	–
312.98 K	0.1242	–
313.13 K	0.1241	–
313.53 K	–	8e-08
314.08 K	–	8e-08
314.44 K	–	7.96e-08
330.69 K	0.1205	–
330.93 K	0.1205	–
331.09 K	0.1204	–
331.46 K	–	7.65e-08
332.04 K	–	7.69e-08
332.43 K	–	7.68e-08

Cc1ccccc1C [1,2-dimethylbenzene]
Details	thermal conductivity [W/m/K]	thermal diffusivity [m2/s]
257.75 K	0.1368	–
257.96 K	0.1369	–
258.1 K	0.1368	–
258.47 K	–	9.16e-08
259 K	–	9.21e-08
259.35 K	–	9.19e-08
277.07 K	0.1334	–
277.27 K	0.1333	–
277.42 K	0.1333	–
277.79 K	–	8.78e-08
278.28 K	–	8.75e-08
278.66 K	–	8.79e-08
295.56 K	0.1296	–
295.78 K	0.1296	–
295.91 K	0.1294	–
296.29 K	–	8.46e-08
296.81 K	–	8.48e-08
297.15 K	–	8.42e-08
312.07 K	0.1259	–
312.29 K	0.1258	–
312.44 K	0.1257	–
312.82 K	–	8.18e-08
313.34 K	–	8.17e-08
313.7 K	–	8.15e-08
328.72 K	0.1222	–
328.94 K	0.122	–
329.09 K	0.1219	–
329.45 K	–	7.83e-08
329.98 K	–	7.83e-08
330.35 K	–	7.81e-08

Cc1cc(C)cc(C)c1 [1,3,5-trimethylbenzene]
Details	thermal conductivity [W/m/K]	thermal diffusivity [m2/s]
258.66 K	0.1434	–
258.83 K	0.1434	–
258.95 K	0.1433	–
259.23 K	–	9.77e-08
259.67 K	–	9.83e-08
259.96 K	–	9.82e-08
276.88 K	0.14	–
277.04 K	0.1398	–
277.16 K	0.1398	–
277.47 K	–	9.49e-08
277.87 K	–	9.44e-08
278.16 K	–	9.45e-08
296.36 K	0.1358	–
296.53 K	0.1356	–
296.66 K	0.1356	–
296.93 K	–	8.99e-08
297.35 K	–	9.01e-08
297.65 K	–	9.02e-08
313.44 K	0.1319	–
313.6 K	0.1317	–
313.73 K	0.1317	–
314.03 K	–	8.71e-08
314.41 K	–	8.63e-08
314.7 K	–	8.63e-08
331.99 K	0.1274	–
332.16 K	0.1274	–
332.28 K	0.1272	–
332.56 K	–	8.28e-08
332.96 K	–	8.25e-08
333.24 K	–	8.21e-08

C1=CCCC=C1 [1,3-cyclohexadiene]
Details	thermal conductivity [W/m/K]	thermal diffusivity [m2/s]
258.35 K	0.1451	–
258.52 K	0.1449	–
258.62 K	0.1448	–
258.89 K	–	8.41e-08
259.3 K	–	8.45e-08
259.56 K	–	8.41e-08
264.66 K	0.1428	–
264.8 K	0.1426	–
264.89 K	0.1424	–
265.09 K	–	7.72e-08
265.41 K	–	7.72e-08
265.61 K	–	7.69e-08
279.17 K	0.138	–
279.31 K	0.1379	–
279.41 K	0.1378	–
279.59 K	–	7.36e-08
279.93 K	–	7.41e-08
280.16 K	–	7.41e-08
296.25 K	0.1334	–
296.51 K	0.1332	–
296.69 K	0.1331	–
297.24 K	–	8.95e-08
297.94 K	–	8.98e-08
298.42 K	–	8.98e-08
313.95 K	0.1278	–
314.22 K	0.1276	–
314.41 K	0.1275	–
314.96 K	–	8.51e-08
315.67 K	–	8.53e-08
316.17 K	–	8.51e-08
328.56 K	0.1232	–
328.84 K	0.1231	–
329.08 K	0.1231	–
329.6 K	–	8.17e-08
330.32 K	–	8.17e-08
330.99 K	–	8.19e-08
